Results published in the NIST ThermoML archive (doi:10.1016/j.jct.2005.04.017).

Assay: mn = molality of the nth substance listed, in mol/kg
Details: Liquid, Capillary tube (Ostwald / Ubbelohde) method

O=[N+]([O-])[O-].O=[N+]([O-])[O-].[Ni+2] [nickel(II) nitrate] + O
viscosity [mPa·s]
Details	100 kPa	10000 kPa	20000 kPa	30000 kPa
297.86 K, m1 = 1.824	1.671	1.672	1.672	1.673
297.86 K, m1 = 2.246	1.973	1.973	1.974	1.974
297.98 K, m1 = 0.608	1.078	1.077	1.077	1.078
298.43 K, m1 = 0.218	0.9454	0.9468	0.9471	0.9482
298.64 K, m1 = 0.951	1.193	1.194	1.194	1.194
298.65 K, m1 = 0.153	0.9231	0.9246	0.9251	0.9261
298.65 K, m1 = 0.288	0.9601	0.9606	0.961	0.962
299.24 K, m1 = 0.05	0.884	0.8839	0.8843	0.8845
299.76 K, m1 = 1.368	1.348	1.348	1.349	1.35
309.84 K, m1 = 2.246	1.537	1.539	1.542	1.545
321.54 K, m1 = 0.05	0.5771	0.579	0.5797	0.582
322.46 K, m1 = 2.246	1.225	1.231	1.236	1.241
322.56 K, m1 = 0.153	0.5821	0.5872	0.592	0.5938
322.56 K, m1 = 0.288	0.6103	0.6122	0.613	0.6145
323.46 K, m1 = 0.608	0.6691	0.6724	0.6754	0.6781
323.67 K, m1 = 0.951	0.7503	0.7533	0.7564	0.7595
323.74 K, m1 = 0.218	0.5854	0.5895	0.5944	0.5968
324.76 K, m1 = 1.824	1.026	1.031	1.036	1.04
326.78 K, m1 = 1.368	0.8295	0.8341	0.8376	0.8422
330.84 K, m1 = 2.246	1.072	1.078	1.082	1.089
338.46 K, m1 = 1.368	0.703	0.7074	0.7123	0.7174
347.43 K, m1 = 0.288	0.4289	0.4346	0.4376	0.4422
347.65 K, m1 = 0.05	0.3939	0.3949	0.3964	0.4013
347.82 K, m1 = 2.246	0.843	0.8486	0.8534	0.8621
347.94 K, m1 = 0.218	0.4152	0.4194	0.4228	0.426
348.89 K, m1 = 0.153	0.401	0.4057	0.4091	0.4122
349.46 K, m1 = 0.951	0.5292	0.5331	0.5374	0.5411
349.76 K, m1 = 0.608	0.4664	0.4708	0.4742	0.4779
349.76 K, m1 = 1.368	0.6103	0.6146	0.6194	0.6253
349.76 K, m1 = 1.824	0.722	0.728	0.7335	0.738
364.21 K, m1 = 2.246	0.6918	0.698	0.705	0.7104
372.46 K, m1 = 0.153	0.3059	0.3101	0.314	0.3166
372.48 K, m1 = 0.218	0.3134	0.3179	0.3212	0.3248
372.49 K, m1 = 1.368	–	0.4771	0.4824	0.4869
372.54 K, m1 = 0.05	0.2921	0.2949	0.2984	0.3015
372.84 K, m1 = 1.824	0.5558	0.5612	0.5672	0.5721
373.06 K, m1 = 0.288	–	0.3246	0.3275	0.3318
373.82 K, m1 = 0.608	–	0.36	0.3643	0.3681
375.48 K, m1 = 2.246	–	0.619	0.6251	0.6322
375.81 K, m1 = 0.951	0.395	0.399	0.4042	0.407
394.58 K, m1 = 2.246	–	0.5162	0.5211	0.5279
394.68 K, m1 = 0.05	–	0.2391	0.2416	0.2449
396.43 K, m1 = 0.951	–	0.3329	0.3365	0.3403
397.82 K, m1 = 0.153	–	0.2441	0.2474	0.2509
398.42 K, m1 = 0.288	–	0.2566	0.2608	0.2633
398.49 K, m1 = 0.608	–	0.289	0.293	0.2967
398.61 K, m1 = 0.218	–	0.249	0.2532	0.2549
399.46 K, m1 = 1.368	–	0.3743	0.3789	0.384
399.46 K, m1 = 1.824	–	0.4393	0.4445	0.4496
412.58 K, m1 = 2.246	–	0.4452	0.4505	0.4568
416.89 K, m1 = 1.368	–	0.327	0.3311	0.3363
421.95 K, m1 = 0.05	–	0.1929	0.1958	0.1985
422.49 K, m1 = 1.824	–	0.3682	0.3726	0.378
422.81 K, m1 = 0.288	–	0.2142	0.2168	0.2198
422.83 K, m1 = 0.951	–	0.2731	0.2767	0.2807
423.73 K, m1 = 0.608	–	0.2402	0.2435	0.2468
424.57 K, m1 = 0.153	–	0.1989	0.203	0.205
424.57 K, m1 = 0.218	–	0.2053	0.2081	0.2119
426.84 K, m1 = 2.246	–	0.4007	0.4063	0.4124
426.89 K, m1 = 1.368	–	0.3051	0.3095	0.3134
446.79 K, m1 = 2.246	–	0.3515	0.3578	0.3622
447.26 K, m1 = 1.368	–	0.2684	0.2714	0.276
448.24 K, m1 = 1.824	–	0.3116	0.3159	0.3211
448.96 K, m1 = 0.288	–	0.1818	0.1845	0.1878
449.28 K, m1 = 0.153	–	0.1703	0.1741	0.1764
449.46 K, m1 = 0.608	–	0.205	0.2085	0.2114
449.48 K, m1 = 0.951	–	0.2309	0.2347	0.2382
449.65 K, m1 = 0.05	–	0.1611	0.1639	0.1661
449.72 K, m1 = 0.218	–	0.175	0.1778	0.1807
471.51 K, m1 = 0.153	–	0.151	0.1534	0.1565
472.15 K, m1 = 0.05	–	0.142	0.1447	0.1468
472.46 K, m1 = 2.246	–	0.304	0.3094	0.314
473.12 K, m1 = 1.824	–	0.2716	0.2768	0.2808
473.87 K, m1 = 0.288	–	0.1591	0.1628	0.1645
474.24 K, m1 = 0.218	–	0.1536	0.156	0.1592
474.83 K, m1 = 0.608	–	0.1805	0.1834	0.186
475.84 K, m1 = 1.368	–	0.23	0.2342	0.2375
